# “Also recorded” adds a separate entry of the source.
# Legend:
# [1] = test system: cultured mouse hippocampal HT4 cells; conditions: cited from earlier work
# cultured neurons = assay: H2O2-induced oxidative insult in cultured neurons, MTT assay of neuroprotection; type: cell-based, rat; conditions: for effect on the neuroprotective efficacy of DHL: H2O2 insult; for % Neuroprotection: 4 h incubation, then 50 μM H2O2 30 min, MTT after 24 h, mean ± SEM
# From the text: (§1) Primary cultures may be established following the procedures outlined by Koenig, M. L., et al., (1996) Brain Res. 730:143-149, which is herein incorporated by reference. The forebrains of fetal rat pups (embryonic day 15) are isolated and the cells are dispersed by repeated trituration in neuronal culture medium (NCM). NCM comprises a 1:1 ratio of Ham's F-12 (Biofluids, Rockville, Md.) to Basal Medium Eagle (Sigma, St. Louis, Mo.), supplemented with 0.6 g/L of dextrose, 0.35% glutamine and 1% Pen-Strep (Biofluids. Rockville, Md.). Following centrifugation at 900×g for 5 minutes, the cells are plated onto poly-L-lysine-coated 48 well plates at a density of 10^6 cells/ml. To suppress glial growth. the cultures are treated with cytosine arabinoside (10^−5 M) for 4 days. All cultures are maintained in an incubator comprising 5% CO2 at 37° C. for about 6 days to about 15 days prior to use.
# Oxidative injury is assessed by using an MTT assay (Sigma, St. Louis, Mo.). About 24 h after exposure to either hemoglobin or an oxidative insult, MTT is added to each test well such that the final concentration of the dye is about 0.15 mg/ml. Plates are returned to the incubator for about 1 hr at which time unincorporated MTU is removed and the plates are allowed to air dry. The purple formazan product indicative of viable cells is then dissolved by adding about 250 μl of acidified isopropanol comprising about 95% isopropanol and about 5% 2N HCl. About 200 μl aliquots are collected and the absorbance of these aliquots are measured on an ELISA plate reader at about 540 nm. Control (untreated) wells are included in each experiment, and viability is calculated as the percentage of mean control values for each plate.
# Cultured neurons were incubated with four DHL concentrations, 3.0, 10.0, 30.0, and 100.0 micromolar of DHL, with or without 10 mM SPBN for four hours. After incubation. an oxidative insult was applied by adding 50 micromolar of H2O2 for 30 minutes after which the medium was removed and replaced with Minimum Essential Medium (MEM) (Sigma. St. Louis, Mo.). After 24 hours, the colormetric MTT assay as described above was conduced to determine amount of neuroprotection.
# Cultured neurons were incubated with four DHL concentrations, 3.0, 10.0, 30.0. and 100.0 micromolar of DHL, with or without 10 mM PBN for four hours. After incubation, an oxidative insult was applied by adding 50 micromolar of H2O2 for 30 minutes after which the medium was […] Minimum Essential Medium (MEM) (Sigma, St. Louis, Mo.). After 24 hours, the colormetric MTT assay as described above was conduced to determine amount of neuroprotection.
# [2] = test system: primary cultures of neurons derived from the forebrains of E-15 rat fetuses; assay: Hemoglobin-induced toxicity in cultured neurons, MTT viability assay; type: cell-based
# Protocol: See Koenig et al., (1999) Neurosci. Abs., 25, which is herein incorporated by reference. […] […] Neuronal viability was assessed by using the calorimetric MT assay of succinate dehydrogenase activity. MTT is a calorimetric dye, 3-(4,5-dimethylthiazol-2-yl)-2,5-diphenyltetrazolium bromide, and is available from Sigma. Neuroprotection increased with increasing concentrations of DHLA.
# as §1, with “To suppress glial growth. the cultures are treated with cytosine arabinoside (10^−5 M) for 4 days. All cultures are maintained in an incubator comprising 5% CO2 at 37° C. for about 6 days to about 15 days prior to use.” left out
# Oxidative injury is assessed by using an MTT assay (Sigma, St. Louis, Mo.). […] About 200 μl aliquots are collected and the absorbance of these aliquots are measured on an ELISA plate reader at about 540 nm. Control (untreated) wells are included in each experiment, and viability is calculated as the percentage of mean control values for each plate.
# rats = assay: Experimental spinal cord injury (dynorphin A injection) in rats, motor scores; type: in vivo; conditions: rat, about 5 micromoles DHLA intrathecally, 2 hour pretreatment and treatment after injury
# Protocol: Here, about 5 micromoles of DHLA was administered intrathecally as a 2 hour pretreatment. Flaccid paralysis was acutely evident about 10 minutes after injection with dynorphin A and where there was no pretreatment with DHLA or co-treatment with DHLA. […] See Long et al., (1999) Neurosci. Abs. 25, which is herein incorporated reference.
smiles,measurement,setting,value
"CN(C)CCNC(=O)CCCCC1CCSS1.Cl (centres unmarked) [LA-plus, 2-(N,N-dimethylamine) ethylamido lipoate-HCL]","in vitro protection against glutamate-induced loss of GSH, formation of peroxide and neurotoxicity, compared with ALA",[1],better
"CC(C)(C)[N+]([O-])=Cc1ccccc1 [PBN, alpha-Phenyl-N-tert-butylnitrone, reference compound]",effect on the neuroprotective efficacy of DHL,cultured neurons; 10 mM PBN co-incubated with 3-100 μM DHL,significantly increased
"CC(C)(C)[N+]([O-])=Cc1ccccc1S(=O)(=O)O [SPBN, N-tert-Butyl-α-(2-sulfophenyl)nitrone, reference compound]",effect on the neuroprotective efficacy of DHL,cultured neurons; 10 mM SPBN co-incubated with 3-100 μM DHL,significantly increased
"O=C(O)CCCC[C@@H](S)CCS (racemic) [DHL, dihydrolipoic acid]",% Neuroprotection,"cultured neurons; DHL 3 μM, SPBN 0 mM",1.31 ± 5.23%
same,% Neuroprotection,"cultured neurons; DHL 10 μM, SPBN 0 mM",−3.68 ± 5.14%
same,% Neuroprotection,"cultured neurons; DHL 30 μM, SPBN 0 mM",7.04 ± 7.38%
same,% Neuroprotection,"cultured neurons; DHL 100 μM, SPBN 0 mM",28.48 ± 5.83%
same,% Neuroprotection,"cultured neurons; Table 2 experiment: DHL 3 μM, PBN 0 mM",−1.3 ± 7.2%
same,% Neuroprotection,"cultured neurons; Table 2 experiment: DHL 10 μM, PBN 0 mM",22.2 ± 13.6%
same,% Neuroprotection,"cultured neurons; Table 2 experiment: DHL 30 μM, PBN 0 mM",22.1 ± 9.7%
same,% Neuroprotection,"cultured neurons; Table 2 experiment: DHL 100 μM, PBN 0 mM",36.9 ± 9.6%
same,"neuroprotection against hemoglobin-induced toxicity (neuronal viability, MTT)",[2]; DHLA co-applied with hemoglobin (no pre-incubation),no evidence of neuroprotection
same,"neuroprotection against hemoglobin-induced toxicity (neuronal viability, MTT)","[2]; pre-incubation about 4 hours, about 0.3 to about 10 micromolar DHLA, then about 10 micromoles hemoglobin for about 24 hours",protective in a concentration-related manner
same,protection against experimental spinal cord injury (motor scores),rats,protective; also recorded: improve motor scores

# From US6469049B1, “Method of treating, preventing or inhibiting central nervous system injuries and diseases” (The United States of America as represented by the …, priority 2000, dated 2002)
